Common to all, as to format: functional, organism-based
The test system of assay [1] is Human immunodeficiency virus 1. In words: Antiviral activity against recombinant HIV-1 NL4-3 expressing HIV-1 HxBc2 envelope infected in U87.CD4.CXCR4 cells by HIV-1 single round infection assay. To be noted: Human immunodeficiency virus 1, NL4-3, U87.CD4.CXCR4.
Assay [2] concerns Human immunodeficiency virus 1. The experiment in a line: Antiviral activity against recombinant HIV-1 NL4-3 expressing HIV-1 B41 envelope infected in U87.CD4.CCR5 cells assessed as inhibition of Env mediated cell entry by HIV-1 single round infection assay. The settings on record: Human immunodeficiency virus 1, NL4-3, U87/CD4/CCR5.
For assay [3], the system named is Human immunodeficiency virus 1. The experiment in a line: Antiviral activity against recombinant HIV-1 NL4-3 expressing AMLV envelope infected in U87.CD4.CCR5 cells assessed as inhibition of Env mediated cell entry by HIV-1 single round infection assay.
Assay [4] deals with Human immunodeficiency virus 1. In words: Antiviral activity against recombinant HIV-1 NL4-3 expressing HIV-1 JR-CSF envelope infected in U87.CD4.CCR5 cells assessed as inhibition of Env mediated cell entry by HIV-1 single round infection assay. To be noted: Human immunodeficiency virus 1, NL4-3, U87/CD4/CCR5.

`COc1cnc(-n2cnc(C)n2)c2[nH]cc(C(=O)C(=O)N3CC(CCC(=O)c4ccccc4)C3)c12`: the IC50 was 9 nM in assay [1], 7 nM in assay [2], “Not Active” in assay [3] and 3 nM in assay [4] (read-out: IC50).
Taken in the same sequence, the figures for `COc1cnc(-n2cnc(C)n2)c2[nH]cc(C(=O)C(=O)NC3C4CN(C(=O)c5ccccc5)CC43)c12` (centres undefined) were 69 nM, 85 nM, “Not Active” and 96 nM.
The like results for `COc1cnc(-n2cnc(C)n2)c2[nH]cc(C(=O)NCC3CN(C(=O)c4ccccc4)C3)c12` were, in that order, 3800 nM, 3800 nM, “Not Active” and 2500 nM.
Taken in the same sequence, the figures for `COc1cnc(-n2cnc(C)n2)c2[nH]cc(C(=O)C(=O)N3CC=C(CNC(=O)c4ccccc4)CC3)c12` were 380 nM, 350 nM, “Not Active” and 224 nM.
As to `COc1cnc(-n2cnc(C)n2)c2[nH]cc(C(=O)C(=O)N3CC4C=NN(c5ccccc5)C4C3)c12` (centres undefined), the IC50 in assay [1] is 80 nM; in assay [2], 6 nM; in assay [3], “Not Active”; in assay [4] (read-out: IC50), 8 nM.
As to `COc1cnc(-n2cnc(C)n2)c2[nH]cc(C(=O)C(=O)N3CC4CN(C(=O)c5ccccc5)CC4C3)c12` (centres undefined), the figures for the IC50 in assay [4] (read-out: IC50) and in assay [4] (read-out: pIC50 (converted)) were 1 nM and 0.794 nM, respectively.
Consider `COc1cnc(-n2cnc(C)n2)c2[nH]cc(C(=O)C(=O)N3CCC4(CCN(C(=O)c5ccccc5)CC4)C3)c12`, for which the IC50 in assay [1] was 36000 nM; in assay [2], 3900 nM; in assay [3], “Not Active”; in assay [4] (read-out: IC50), 13000 nM; in assay [4] (read-out: pIC50 (converted)) it was 12900 nM.
In the case of `COc1cnc(Cl)c2[nH]cc(C(=O)C(=O)N3CC4CN(C(=O)c5ccccc5)CC4C3)c12` (centres undefined), the IC50 in assay [4] (read-out: IC50) was 100000 nM.
On to `COc1cnc(-n2cnc(C)n2)c2[nH]cc(C(=O)C(=O)N3CC4CN(C(=O)C5=CCCCC5)CC4C3)c12` (centres undefined), for which, in assay [4] (read-out: IC50), the IC50 came out at 2 nM.

For the origin of these results see ChEMBL document CHEMBL3745657, “Core chemotype diversification in the HIV-1 entry inhibitor class using field-based bioisosteric replacement” (Bioorg Med Chem Lett, 2016).
